Assay results from PubChem BioAssay (NCI).
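All cell lines were grown in 96-well plates and treated with compound for 48 hours. GI50 marks 50% less growth. TGI: total growth inhibition.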

Columns and labels:
Test in all cases: growth of human tumour cells (NCI), 48 h
[1] = test system: LOX IMVI melanoma
[2] = test system: DU-145 prostate
[3] = test system: SW-620 colon
[4] = test system: M14 melanoma
[5] = test system: OVCAR-4 ovarian
[6] = test system: CAKI-1 renal
[7] = test system: HT29 colon
[8] = test system: HOP-92 NSCLC
[9] = test system: OVCAR-8 ovarian
[10] = test system: MOLT-4 leukemia
[11] = test system: T-47D breast
[12] = test system: SK-MEL-2 melanoma
[13] = test system: PC-3 prostate
[14] = test system: K-562 leukemia
[15] = test system: UACC-62 melanoma
[16] = test system: UO-31 renal
[17] = test system: TK-10 renal
[18] = test system: MDA-MB-231 breast
[19] = test system: SF-295 CNS
[20] = test system: SK-OV-3 ovarian
[21] = test system: EKVX NSCLC
[22] = test system: NCI-H460 lung
[23] = test system: COLO 205 colon
[24] = test system: ACHN renal
[25] = test system: IGROV1 ovarian
[26] = test system: BT-549 breast
[27] = test system: KM12 colon
[28] = test system: HCC-2998 colon
[29] = test system: MDA-MB-435
[30] = test system: SNB-75 CNS
[31] = test system: SNB-19 CNS
[32] = test system: HOP-62 NSCLC
[33] = test system: A498 renal
[34] = test system: NCI-H226 lung
[35] = test system: HS 578T breast
[36] = test system: OVCAR-5 ovarian
[37] = test system: SF-539 CNS
[38] = test system: NCI-H522 lung
[39] = test system: A549 NSCLC
[40] = test system: SF-268 CNS
[41] = test system: NCI-H23 lung
[42] = test system: HCT-15 colon
[43] = test system: NCI/ADR-RES ovarian
[44] = test system: SN12C renal
[45] = test system: UACC-257 melanoma
[46] = test system: OVCAR-3 ovarian
[47] = test system: HCT-116 colon
[48] = test system: SK-MEL-5 melanoma
[49] = test system: MALME-3M melanoma
[50] = test system: SK-MEL-28 melanoma
[51] = test system: CCRF-CEM leukemia
[52] = test system: 786-0 renal
[53] = test system: HL-60(TB) leukemia
[54] = test system: MCF7 breast
[55] = test system: RXF 393 renal
[56] = test system: SR leukemia
[57] = test system: RPMI-8226 leukemia
[58] = test system: U251 CNS

Structure (SMILES): CN1CCN(c2ccc(Nc3nc(NCCCNS(=O)(=O)c4cccc5ccccc45)c4sccc4n3)cc2)CC1
- GI50 [1]: 1.66 µM
- TGI [1]: 3.05 µM
- GI50 [2]: 6.23 µM
- TGI [2]: 20.5 µM
- GI50 [3]: 2.02 µM
- TGI [3]: 4.04 µM
- GI50 [4]: 1.9 µM
- TGI [4]: 3.48 µM
- GI50 [5]: 3.43 µM
- TGI [5]: 13 µM
- GI50 [6]: 3.85 µM
- TGI [6]: 14.7 µM
- GI50 [7]: 2.41 µM
- TGI [7]: 7.52 µM
- GI50 [8]: 7.45 µM
- TGI [8]: 27.7 µM
- GI50 [9]: 4.44 µM
- TGI [9]: 23.5 µM
- GI50 [10]: 2.93 µM
- TGI [10]: 11.9 µM
- GI50 [11]: 2.76 µM
- TGI [11]: 9 µM
- GI50 [12]: 2.36 µM
- TGI [12]: 5.79 µM
- GI50 [13]: 5.69 µM
- TGI [13]: > 100 µM
- GI50 [14]: 3.1 µM
- TGI [14]: > 100 µM
- GI50 [15]: 1.69 µM
- TGI [15]: 3.13 µM
- GI50 [16]: 2.35 µM
- TGI [16]: 7.81 µM
- GI50 [17]: 4.54 µM
- TGI [17]: 16.5 µM
- GI50 [18]: 2.08 µM
- TGI [18]: 4.06 µM
- GI50 [19]: 1.86 µM
- TGI [19]: 3.81 µM
- GI50 [20]: 20.8 µM
- TGI [20]: 39.5 µM
- GI50 [21]: 7.21 µM
- TGI [21]: 20.7 µM
- GI50 [22]: 3.44 µM
- TGI [22]: 10.6 µM
- GI50 [23]: 2.12 µM
- TGI [23]: 4.31 µM
- GI50 [24]: 3.39 µM
- TGI [24]: 10.6 µM
- GI50 [25]: 2.92 µM
- TGI [25]: 10.2 µM
- GI50 [26]: 5.23 µM
- TGI [26]: 21.4 µM
- GI50 [27]: 4.67 µM
- TGI [27]: 22.7 µM
- GI50 [28]: 1.97 µM
- TGI [28]: 4.37 µM
- GI50 [29]: 1.76 µM
- TGI [29]: 3.21 µM
- GI50 [30]: 12.7 µM
- TGI [30]: 25.4 µM
- GI50 [31]: 5.75 µM
- TGI [31]: 18.3 µM
- GI50 [32]: 15.3 µM
- TGI [32]: 32.4 µM
- GI50 [33]: 2.86 µM
- TGI [33]: 9.4 µM
- GI50 [34]: 12.2 µM
- TGI [34]: 34.4 µM
- GI50 [35]: 2.32 µM
- TGI [35]: 7.61 µM
- GI50 [36]: 4.51 µM
- TGI [36]: 16.5 µM
- GI50 [37]: 1.72 µM
- TGI [37]: 3.11 µM
- GI50 [38]: 1.81 µM
- TGI [38]: 3.92 µM
- GI50 [39]: 3.42 µM
- TGI [39]: 19.9 µM
- GI50 [40]: 3.43 µM
- TGI [40]: 20.8 µM
- GI50 [41]: 7.35 µM
- TGI [41]: 22.3 µM
- GI50 [42]: 1.78 µM
- TGI [42]: 3.53 µM
- GI50 [43]: 5.29 µM
- TGI [43]: 19.8 µM
- GI50 [44]: 6.48 µM
- TGI [44]: 19.7 µM
- GI50 [45]: 1.83 µM
- TGI [45]: 3.54 µM
- GI50 [46]: 3.32 µM
- TGI [46]: 10.5 µM
- GI50 [47]: 2.27 µM
- TGI [47]: 6.14 µM
- GI50 [48]: 1.78 µM
- TGI [48]: 3.19 µM
- GI50 [49]: 1.79 µM
- TGI [49]: 3.19 µM
- GI50 [50]: 1.73 µM
- TGI [50]: 3.22 µM
- GI50 [51]: 3.35 µM
- TGI [51]: > 100 µM
- GI50 [52]: 1.78 µM
- TGI [52]: 3.44 µM
- GI50 [53]: 2.06 µM
- TGI [53]: 4.74 µM
- GI50 [54]: 2.2 µM
- TGI [54]: 5.25 µM

Structure (SMILES): COc1cc(O)c2c(c1)[C@H]1O[C@@H]1C[C@H](O)[C@H](O)C(=O)/C=C\C[C@H](C)OC2=O
- GI50 [1]: 1.25 µM
- TGI [1]: > 19.3 µM
- GI50 [55]: 1.56 µM
- TGI [55]: 8.19 µM
- GI50 [2]: 3.53 µM
- TGI [2]: > 33.3 µM
- GI50 [3]: 0.56 µM
- TGI [3]: 6.36 µM
- GI50 [4]: 0.0483 µM
- TGI [4]: 6.84 µM
- GI50 [5]: 1.07 µM
- TGI [5]: > 33.3 µM
- GI50 [56]: 3.08 µM
- TGI [56]: > 30.6 µM
- GI50 [7]: 0.0883 µM
- TGI [7]: 13.4 µM
- GI50 [8]: 0.176 µM
- TGI [8]: 2.88 µM
- GI50 [57]: 1.5 µM
- TGI [57]: 14.5 µM
- GI50 [9]: 6.08 µM
- TGI [9]: > 28.6 µM
- GI50 [10]: 2.65 µM
- TGI [10]: > 33.3 µM
- GI50 [11]: 0.774 µM
- TGI [11]: 18.3 µM
- GI50 [12]: 1.68 µM
- TGI [12]: 10.5 µM
- GI50 [13]: 11.5 µM
- TGI [13]: > 33.3 µM
- GI50 [14]: 2.09 µM
- TGI [14]: > 33.3 µM
- GI50 [15]: 0.114 µM
- TGI [15]: 5.33 µM
- GI50 [16]: 0.561 µM
- TGI [16]: > 21.6 µM
- GI50 [17]: 1.69 µM
- TGI [17]: 20.3 µM
- GI50 [18]: 2.05 µM
- TGI [18]: 16.2 µM
- GI50 [19]: 9.57 µM
- TGI [19]: > 33.3 µM
- GI50 [20]: 24 µM
- TGI [20]: > 33.3 µM
- GI50 [21]: 3.88 µM
- TGI [21]: > 30.8 µM
- GI50 [22]: 4.96 µM
- TGI [22]: > 21.2 µM
- GI50 [23]: 0.0226 µM
- TGI [23]: 4.02 µM
- GI50 [24]: 2.14 µM
- TGI [24]: > 33.3 µM
- GI50 [25]: 1.27 µM
- TGI [25]: > 33.3 µM
- GI50 [26]: 1.18 µM
- TGI [26]: 10.7 µM
- GI50 [27]: 12.2 µM
- TGI [27]: > 33.3 µM
- GI50 [28]: 4.85 µM
- TGI [28]: 19 µM
- GI50 [29]: 0.298 µM
- TGI [29]: 7.15 µM
- GI50 [30]: 6.11 µM
- TGI [30]: > 33.3 µM
- GI50 [31]: 8.59 µM
- TGI [31]: > 33.3 µM
- GI50 [32]: 8.97 µM
- TGI [32]: > 29.7 µM
- GI50 [33]: 1.93 µM
- TGI [33]: 9.51 µM
- GI50 [34]: 3.71 µM
- TGI [34]: > 27.1 µM
- GI50 [58]: 8.57 µM
- TGI [58]: > 33.3 µM
- GI50 [35]: 5.92 µM
- TGI [35]: 27 µM
- GI50 [36]: 3.98 µM
- TGI [36]: > 33.3 µM
- GI50 [37]: 4.68 µM
- TGI [37]: 12.6 µM
- GI50 [38]: 0.599 µM
- TGI [38]: 6.42 µM
- GI50 [39]: 16.7 µM
- TGI [39]: > 33.3 µM
- GI50 [40]: 6.54 µM
- TGI [40]: > 28.5 µM
- GI50 [41]: 1.95 µM
- TGI [41]: > 27.3 µM
- GI50 [42]: 1.81 µM
- TGI [42]: 23.4 µM
- GI50 [43]: 8.56 µM
- TGI [43]: > 33.3 µM
- GI50 [44]: 5.25 µM
- TGI [44]: > 27.7 µM
- GI50 [45]: 0.0584 µM
- TGI [45]: 0.525 µM
- GI50 [46]: 2.49 µM
- TGI [46]: 16.5 µM
- GI50 [47]: 0.779 µM
- TGI [47]: > 17.5 µM
- GI50 [48]: 1.58 µM
- TGI [48]: 10.3 µM
- GI50 [49]: 0.00553 µM
- TGI [49]: 0.0231 µM
- GI50 [50]: 0.0445 µM
- TGI [50]: 2.32 µM
- GI50 [51]: 1.54 µM
- TGI [51]: > 33.3 µM
- GI50 [52]: 4.87 µM
- TGI [52]: 27.4 µM
- GI50 [53]: 0.197 µM
- TGI [53]: > 10.6 µM
- GI50 [54]: 2.09 µM
- TGI [54]: > 33.3 µM
